Our source for the melting point values is a melting point compilation (Tetko et al.; mined from patent text by program, amines drawn as free bases though some values may be those of a salt).

Broadly, the melting point is the temperature, or range, at which the solid turns liquid. The molecule `COc1ccc2[nH]c3c(c2c1[N+](=O)[O-])CCC3=O` gave a melting point of 293 °C.

Take `NC(=O)N(c1ccccc1)c1nc(Cl)nc(Cl)n1`: the melting point is 151 to 154 °C.

Regarding `O=C(CCCCCBr)c1cc2c3c(c1)CCC(=O)N3CCC2`, the melting point is 52 to 53 °C.

Molecule `O=S(=O)(c1ccc(Cl)cc1)C(c1cc(F)ccc1F)c1cc(Cl)ncc1Cl` (configuration not stated) returned a melting point of 147 to 148 °C.

`CCCCc1ccc(-c2ccccc2)c(C(=O)O)c1`: the melting point lay within 74 to 76 °C.

Consider `N=C(Nc1ccc(Cl)cc1)Nc1ncc(Cl)cc1OCc1c(F)cccc1Cl`, for which the melting point fell in the range of 132 to 133 °C.

`O=S(=O)(c1ccc(Cl)cc1)C(c1ccc(CN2CCOCC2)cn1)c1cc(F)ccc1F` (configuration not stated): the melting point fell in the range of 120 to 121 °C.

`O=C(O)CNc1cc(C(=O)O)nc2ccccc12` came in with a melting point of 260 to 261 °C.

`CC(=O)Cn1cnc2c1c(=O)n(CC1CC1)c(=O)n2C1CCCC1` registered a melting point of 155 °C.

On to `COc1ccc(-c2csc(CO)c2)cc1`, for which the melting point was 136 to 138 °C.

Molecule `COC(=O)c1c(C=O)n(C)c2ccc(OC)cc12` came in with a melting point of 133 to 134 °C.

Molecule `CCNc1nc(NC(C)C)nc(OC)n1` showed a melting point of 95 to 96 °C.

In turn, `O=[N+]([O-])C(CO)(CO)c1ccccc1` had a melting point of 96 to 97.5 °C.

`CNc1cc(CCN)ccc1OC` showed a melting point of 90 to 92 °C.

`C=COCCONC(=O)c1cc(Cl)c(F)c(F)c1Nc1ccc(I)cc1F` showed a melting point of 119 to 120 °C.

In turn, `COc1cc2c(cc1OC)C(=O)C(=CC=Cc1ccc(N(C)C)cc1)C2` came in with a melting point of 210 to 213 °C.

Molecule `CCOC(=O)CCC1CCN(C(=O)[C@H](C)NC(=O)c2ccc(C#N)cc2)CC1` returned a melting point of 108 to 109 °C.

The molecule `CC(C)(C)OC(=O)N1CCN(Cc2ccc([N+](=O)[O-])cc2)CC1` had a melting point of 99 to 100 °C.

In the case of `CCOC(=O)c1cc(=O)c2cc3c(=O)cc(C(=O)OCC)oc3cc2[nH]1`, the melting point lay in the range of 201 to 202 °C.

Consider `Cc1ccc(S(=O)(=O)Oc2ccc(NC(=O)NCCCl)cc2)cc1`, for which the melting point is 149 to 150 °C.

`Cc1ccc(C(OC2CCN(CC(=O)O)CC2)c2ccccc2)cc1` (configuration not stated): the melting point fell in the range of 73.5 to 75 °C.

With `O=[N+]([O-])c1cnn2c(-c3cccnc3)ccnc12`, the melting point lay within 302 to 303 °C.

In turn, `CC(C)(c1ccc(Oc2ccc([N+](=O)[O-])cc2F)cc1)c1cccc(C(C)(C)c2ccc(Oc3ccc([N+](=O)[O-])cc3F)cc2)c1` registered a melting point of 151 to 152 °C.

In turn, `CN(C)CCn1c(=O)[nH]c2cccnc21` gave a melting point of 141 to 142 °C.

In turn, `Cc1ccc(OC2COc3ccc(O)cc3C2O)cn1` (configuration not stated) displayed a melting point of 240 to 241 °C.

With `COc1ccc2c(c1)c1c(n2CCC(=O)NN)CCN(C)C1`, the melting point lay within 126 to 128 °C.

For `COc1sc(S(=O)(=O)C[N+](=O)[O-])cc1Br`, the melting point was 120 to 121 °C.

`O=C(Cl)c1ccc(-c2nc(C(Cl)(Cl)Cl)nc(C(Cl)(Cl)Cl)n2)cc1` registered a melting point of 100 to 101 °C.

For the molecule `Nc1ccc(C#Cc2nc(F)c(F)c(F)c2F)c(C#Cc2nc(F)c(F)c(F)c2F)c1`, the melting point was in the range of 164 to 165 °C.

As to `CSC1CC(=O)N1CC(=O)O` (single isomer, unassigned; (+)), the melting point lay within 117 to 118 °C.

On to `COc1cccc(Nc2n[nH]c(N)c2C#N)c1`, for which the melting point lay in the range of 177 to 180 °C.

`Nc1ncnc2c1nc(OC(=O)OCc1ccccc1)n2Cc1ccccc1` returned a melting point greater than 300 °C.

`O=C1N(Cc2ncccc2C(F)(F)F)c2c(F)cccc2C12COc1cc3c(cc12)OCCO3` (configuration not stated) returned a melting point of 241 to 243 °C.

In turn, `C=C(Br)c1cc(O)cc2nc(-c3ccc(O)c(F)c3F)oc12` had a melting point of 240 to 242 °C.

The molecule `CC(=O)Nc1ncc(CCc2ccc(N)cc2)s1` yielded a melting point of 218 to 220 °C.

On to `Cn1c2ccc(Cl)cc2c2c(CBr)nn(-c3ccccc3)c(=O)c21`, for which the melting point is 253 to 254 °C.

The molecule `Cc1nn(-c2cccnc2)cc1NCC1CC1` came in with a melting point of 73 to 75 °C.
